# Reference: patent US8686002B2, “Heterocyclic compounds and their use as binding partners for 5-HT5 receptors” (AbbVie Deutschland GmbH & Co. KG, priority 2005, dated 2014)
# Where a name gives a salt, the structure may show the parent alone.
# Biological target: 5-HT5A (Homo sapiens, UniProt P47898)
# Assay: Affinity of selected compounds for 5-HT5A (Ki)
# Type: binding
# Method: In both assays, different concentrations of the test substances are used and the Ki and IC50 values are determined.
# Chain of 5-HT5A (P47898 whole entry): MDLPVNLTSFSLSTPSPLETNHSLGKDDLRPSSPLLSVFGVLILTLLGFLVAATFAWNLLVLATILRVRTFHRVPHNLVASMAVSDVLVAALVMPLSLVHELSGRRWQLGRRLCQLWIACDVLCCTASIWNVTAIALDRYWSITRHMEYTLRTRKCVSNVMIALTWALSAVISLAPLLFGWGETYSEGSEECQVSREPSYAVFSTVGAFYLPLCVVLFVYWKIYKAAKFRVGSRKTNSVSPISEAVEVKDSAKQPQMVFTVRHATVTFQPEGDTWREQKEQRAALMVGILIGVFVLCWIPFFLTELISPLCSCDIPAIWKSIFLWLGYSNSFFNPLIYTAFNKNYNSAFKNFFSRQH
row,Molecule,Ki
1,"3-(2-Methoxybenzyl)-N-(1-naphthylmethyl)-3,4-dihydroquinazolin-2-amine hydrochloride [Example 99]",< 10000 nM
2,"COc1ccccc1Cc1cc2ccccc2nc1N [Example 1, 3-(2-Methoxybenzyl)quinolin-2-amine]",< 300 nM
3,"COc1cccc(O)c1Cc1cc2ccccc2nc1N [Example 2, 2-[(2-Aminoquinolin-3-yl)methyl]-3-methoxyphenol]",< 300 nM
4,"COc1cccc(OC)c1Cc1cc2ccccc2nc1N [Example 3, 3-(2,6-Dimethoxybenzyl)quinolin-2-amine]",< 300 nM
5,"CCOc1cccc(OC)c1Cc1cc2ccccc2nc1N [Example 4, 3-(2-Ethoxy-6-methoxybenzyl)quinolin-2-amine]",< 300 nM
6,"COc1cccc(OC(C)C)c1Cc1cc2ccccc2nc1N [Example 5, 3-(2-Isopropoxy-6-methoxybenzyl)quinolin-2-amine]",< 300 nM
7,"COc1ccc2cc(Cc3ccccc3OC)c(N)nc2c1 [Example 6, 7-Methoxy-3-(2-methoxybenzyl)quinolin-2-amine]",< 300 nM
8,"COc1ccc2nc(N)c(Cc3ccccc3OC)cc2c1 [Example 7, 6-Methoxy-3-(2-methoxybenzyl)quinolin-2-amine]",< 300 nM
9,"COc1cccc(OC)c1Cc1cc2cc(Cl)ccc2nc1N [Example 9, 6-Chloro-3-(2,6-dimethoxybenzyl)quinolin-2-amine]",< 300 nM
10,COc1ccccc1Cc1cc2cc(Cl)ccc2nc1N [Example 11],< 300 nM
11,COc1cccc(OC)c1Cc1cc2cc3c(cc2nc1N)OCO3 [Example 12],< 300 nM
12,"COc1cc2cc(Cc3c(OC)cccc3OC)c(N)nc2cc1OC [Example 13, 3-(2,6-Dimethoxybenzyl)-6,7-dimethoxy-quinolin-2-amine]",< 300 nM
13,"COc1ccccc1Cc1cc2cc3c(cc2nc1N)OCO3 [Example 14, 7-(2-Methoxybenzyl)[1.3]dioxolo[4.5-g]quinolin-6-amine]",< 300 nM
14,"COc1ccccc1Cc1cc2ccc(Cl)cc2nc1N [Example 15, 7-Chloro-3-(2-methoxybenzyl)quinolin-2-amine]",< 300 nM
15,"COc1ccccc1Cc1cc2cc(OC)c(OC)cc2nc1N [Example 16, 6,7-Dimethoxy-3-(2-methoxybenzyl)quinolin-2-amine]",< 300 nM
16,"COc1cccc(F)c1Cc1cc2cc3c(cc2nc1N)OCO3 [Example 17, 7-(2-Fluoro-6-methoxybenzyl)[1.3]dioxolo[4.5-g]quinolin-6-amine]",< 300 nM
17,"COc1ccccc1Cc1cc2cc(F)ccc2nc1N [Example 18, 6-Fluoro-3-(2-methoxybenzyl)quinolin-2-amine]",< 300 nM
18,"COc1ccccc1Cc1cc2c(Cl)cccc2nc1N [Example 19, 5-Chloro-3-(2-methoxybenzyl)quinolin-2-amine]",< 300 nM
19,"COc1cccc(OC)c1Cc1cc2cccnc2nc1N [Example 21, 3-(2,6-Dimethoxybenzyl)-1,8-naphthyridin-2-amine]",< 10000 nM
20,"COc1cccc(OC)c1Cc1cc2cnccc2nc1N [Example 22, 3-(2,6-Dimethoxybenzyl)-1,6-naphthyridin-2-amine]",< 300 nM

row,Molecule,Ki
1,"COc1cccc(OC)c1Cc1cc2cc(F)ccc2nc1N [Example 23, 3-(2,6-Dimethoxybenzyl)-6-fluoroquinolin-2-amine]",< 300 nM
2,"COc1cccc(F)c1Cc1cc2cc(F)ccc2nc1N [Example 24, 6-Fluoro-3-(2-fluoro-6-methoxybenzyl)quinolin-2-amine]",< 300 nM
3,"Nc1nc2ccccc2cc1Cc1ccccc1O [Example 25, 2-[(2-Aminoquinolin-3-yl)methyl]phenol]",< 300 nM
4,"COc1cccc(F)c1Cc1cc2ccc(Cl)cc2nc1N [Example 26, 7-Chloro-3-(2-fluoro-6-methoxybenzyl)quinolin-2-amine]",< 300 nM
5,"COc1cccc(Cl)c1Cc1cc2ccc(Cl)cc2nc1N [Example 27, 7-Chloro-3-(2-chloro-6-methoxybenzyl)quinolin-2-amine]",< 300 nM
6,"COc1ccccc1Cc1cc2ccc(N(C)C)cc2nc1N [Example 28, 3-(2-Methoxybenzyl)-N^7,N^7-dimethylquinolin-2,7-diamine]",< 300 nM
7,"COc1cccc(F)c1Cc1cc2ccccc2nc1N [Example 29, 3-(2-Fluoro-6-methoxybenzyl)quinolin-2-amine]",< 300 nM
8,"COc1cccc(Cl)c1Cc1cc2ccccc2nc1N [Example 30, 3-(2-Chloro-6-methoxybenzyl)quinolin-2-amine]",< 300 nM
9,"CCOc1ccc2nc(N)c(Cc3ccccc3OC)cc2c1 [Example 31, 6-Ethoxy-3-(2-methoxybenzyl)quinolin-2-amine]",< 300 nM
10,"CCOc1ccc2nc(N)c(Cc3c(OC)cccc3OC)cc2c1 [Example 32, 6-Ethoxy-3-(2,6-dimethoxybenzyl)quinolin-2-amine]",< 300 nM
11,"COc1ccccc1Cc1cc2cnccc2nc1N [Example 33, 3-(2-Methoxybenzyl)-1,6-naphthyridin-2-amine]",< 300 nM
12,"COc1ccccc1Cc1cc2cccnc2nc1N [Example 34, 3-(2-Methoxybenzyl)-1,8-naphthyridin-2-amine]",< 10000 nM
13,"COc1cccc(F)c1Cc1cc2cnccc2nc1N [Example 35, 3-(2-Fluoro-6-methoxybenzyl)-1,6-naphthyridin-2-amine]",< 300 nM
14,"COc1ccccc1Cc1cc2ccncc2nc1N [Example 36, 3-(2-Methoxybenzyl)-1,7-naphthyridin-2-amine]",< 300 nM
15,"COc1cccc(OC)c1Cc1cc2ccncc2nc1N [Example 37, 3-(2,6-Dimethoxybenzyl)-1,7-naphthyridin-2-amine]",< 300 nM
16,"COc1ccccc1Cc1cc2ncccc2nc1N [Example 38, 3-(2-Methoxybenzyl)-1,5-naphthyridin-2-amine]",< 300 nM
17,"COc1ccccc1Cc1cc2ccc(F)cc2nc1N [Example 39, 7-Fluoro-3-(2-methoxybenzyl)quinolin-2-amine]",< 300 nM
18,"COc1cccc(Cl)c1Cc1cc2cc3c(cc2nc1N)OCO3 [Example 40, 7-(2-Chloro-6-methoxybenzyl)[1.3]dioxolo[4,5-g]quinolin-76-amine]",< 300 nM
19,"COc1ccccc1Cc1cc2cc(F)c(F)cc2nc1N [Example 41, 6,7-Difluoro-3-(2-methoxybenzyl)quinolin-2-amine]",< 300 nM
20,"COc1cccc(F)c1Cc1cc2ccc(F)cc2nc1N [Example 42, 7-Fluoro-3-(2-fluoro-6-methoxybenzyl)quinolin-2-amine]",< 300 nM

row,Molecule,Ki
1,"COCCOc1ccc2nc(N)c(Cc3ccccc3OC)cc2c1 [Example 43, 3-(2-Methoxybenzyl)-6-(2-methoxyethoxy)quinolin-2-amine]",< 300 nM
2,"COc1ccccc1Cc1cc2cc(N3CCOCC3)ccc2nc1N [Example 44, 3-(2-Methoxybenzyl)-6-morpholin-4-ylquinolin-2-amine]",< 300 nM
3,"COc1cccc(F)c1Cc1cc2cc(N3CCOCC3)ccc2nc1N [Example 45, 3-(2-Methoxy-6-fluorobenzyl)-6-morpholin-4-ylquinolin-2-amine]",< 300 nM
4,"COc1cccc(OC)c1Cc1cc2ncccc2nc1N [Example 46, 3-(2,6-Dimethoxybenzyl)-1,5-naphthyridin-2-amine]",< 300 nM
5,"COc1cccc(F)c1Cc1cc2ncccc2nc1N [Example 47, 3-(2-Fluoro-6-methoxybenzyl)-1,5-naphthyridin-2-amine]",< 300 nM
6,"COc1ccccc1Cc1cc2cc(N3CCN(C)CC3)ccc2nc1N [Example 48, 3-(2-Methoxybenzyl)-6-(4-methylpiperazin-1-yl)quinolin-2-amine bisfumarate]",< 300 nM
7,"COc1cccc(F)c1Cc1cc2cc(N3CCN(C)CC3)ccc2nc1N [Example 49, 3-(2-Fluoro-6-methoxybenzyl)-6-(4-methylpiperazin-1-yl)quinolin-2-aminomonofumarate]",< 300 nM
8,"COc1ccccc1Cc1cc2cc(N3CCOCC3)c(F)cc2nc1N [Example 50, 7-Fluoro-3-(2-methoxybenzyl)-6-morpholin-4-ylquinolin-2-amine]",< 300 nM
9,"COc1ccccc1Cc1cc2cccc(OC)c2nc1N [Example 51, 8-Methoxy-3-(2-methoxybenzyl)quinolin-2-amine]",< 300 nM
10,"COc1cccc(OC)c1Cc1cc2cccc(OC)c2nc1N [Example 52, 3-(2,6-Dimethoxybenzyl)-8-methoxyquinolin-2-amine hydrochloride]",< 300 nM
11,"Nc1nc2ccccc2cc1Cc1ccccc1OC(F)(F)F [Example 53, 3-[2-(Trifluoromethoxy)benzyl]quinolin-2-amine]",< 300 nM
12,"CC(C)Oc1ccccc1Cc1cc2ccccc2nc1N [Example 54, 3-(2-Isopropoxybenzyl)quinolin-2-amine hydrochloride]",< 300 nM
13,"CCOc1ccccc1Cc1cc2ccccc2nc1N [Example 55, 3-(2-Ethoxybenzyl)quinolin-2-amine hydrochloride]",< 300 nM
14,"CC(C)Oc1cccc(F)c1Cc1cc2ccccc2nc1N [Example 56, 3-(2-Fluoro-6-isopropoxybenzyl)quinolin-2-amine hydrochloride]",< 300 nM
15,"COc1cccc(Cl)c1Cc1cc2ncccc2nc1N [Example 58, 3-(2-Chloro-6-methoxybenzyl)-1,5-naphthyridin-2-amine]",< 300 nM
16,"CCOc1cccc(F)c1Cc1cc2ccccc2nc1N [Example 59, 3-(2-Ethoxy-6-fluorobenzyl)quinolin-2-amine hydrochloride]",< 300 nM
17,"CN(C)CCOc1cccc(F)c1Cc1cc2ccccc2nc1N [Example 60, 3-{2-[2-(Dimethylamino)ethoxy]-6-fluorobenzyl}quinolin-2-amine bishydrochloride]",< 300 nM
18,"Nc1nc2ccccc2cc1Cc1ccccc1OC(F)F [Example 61, 3-[2-(difluoromethoxy)benzyl]quinolin-2-amine]",< 300 nM
19,"CCOc1ccccc1Cc1cc2cc(N3CCOCC3)ccc2nc1N [Example 62, 3-(2-Ethoxygenzyl)-6-morpholin-4-ylquinolin-2-amine monofumarate]",< 300 nM
20,"COc1cccc(OC)c1CN1Cc2ccccc2N=C1N [Example 63, 3-(2,6-Dimethoxybenzyl)-3,4-dihydroquinazolin-2-amine acetate]",< 300 nM
